This is an account of results in ChEMBL document CHEMBL5608185, “Design, synthesis and evaluation of carbamate-bridged amino acid prodrugs of cycloicaritin with improved antitumor activity, aqueous solubility and phase II metabolic stability” (Eur J Med Chem, 2024).

≈ marks a conversion by molar mass, not a printed value.

Data set [1] is described as follows: Aqueous solubility of the compound incubated for 72 hrs by shake-flask method. Format: physicochemical. The note with it: buffer.
A short description of data set [2]: Octanol/water partition coefficient, logP of the compound incubated for 72 hrs by HPLC-MS/MS analysis. Type of data set: physicochemical.
Data set [3] is described as follows: Chemical stability of the compound assessed as half life at pH 1.2 by HPLC analysis. Format: physicochemical. The note with it: buffer.
Data set [4] in a line: Chemical stability of the compound assessed as half life at pH 4.5 by HPLC analysis. The note with it: buffer. Format: physicochemical.
The nature of data set [5]: Chemical stability of the compound assessed as half life at pH 6.8 by HPLC analysis. Type of data set: physicochemical. The note with it: buffer.
The nature of data set [6]: Chemical stability of the compound assessed as half life at pH 7.4 by HPLC analysis. The note with it: buffer. Type of data set: physicochemical.
A short description of data set [7]: Chemical stability of the compound in simulated gastric fluid assessed as half life by HPLC analysis. Type of data set: ADME, physicochemical.
The nature of data set [8]: Chemical stability of the compound in simulated intestinal fluid assessed as half life by HPLC analysis. Format: ADME, physicochemical.
Data set [9] can be described thus: Stability in Sprague-Dawley rat intestine homogenates assessed as half life at pH 7.4 by HPLC analysis. Format: ADME, tissue-based.
Data set [10] is described as follows: Stability in Sprague-Dawley rat liver homogenates assessed as half life at pH 7.4 by HPLC analysis. Type of data set: ADME, tissue-based.
The nature of data set [11]: Stability in Sprague-Dawley rat blood homogenates assessed as half life at pH 7.4 by HPLC analysis. Type of data set: ADME, tissue-based.
The nature of data set [12]: Stability at phase II in rat liver microsomes assessed as half life at 10 uM measured every 10 mins for 70 mins by HPLC-UV analysis. Format: ADME, Microsome.
A short description of data set [13]: Stability in rat liver microsomes assessed as parent compound remaining at 10 uM measured after 70 mins by HPLC-UV analysis. Type of data set: ADME, Microsome. The note with it: read-out: Stability.
The nature of data set [14]: Drug uptake in human Caco-2 cells over 1 to 100 uM incubated for 10 mins by HPLC-MS/MS analysis. Format: ADME, cell-based. The note with it: caco-2, 10 min, dose 1-100 µM.
The nature of data set [15]: Drug uptake in human Caco-2 cells at 5 uM at pH 7.4 incubated for 10 mins by HPLC-MS/MS analysis. Format: ADME, cell-based. The note with it: caco-2, pH 7.4, 10 min.
Data set [16] in a line: Drug uptake in human Caco-2 cells at 5 uM incubated for 10 mins in presence of Estrone-3-sulfate by HPLC-MS/MS analysis. Format: ADME, cell-based. The note with it: caco-2, 10 min.
Data set [17] can be described thus: Drug uptake in human Caco-2 cells at 5 uM incubated for 10 mins in presence of fexofenadine by HPLC-MS/MS analysis. Format: ADME, cell-based. The note with it: caco-2, 10 min.
Data set [18] is described as follows: Drug metabolism in rat liver microsomes at 10 uM measured upto 70 mins by HPLC-UV analysis. Type of data set: ADME, Microsome. The note with it: 1.167 h. (Microsomes from liver hold many membrane-bound enzymes, among them those of drug oxidation.)
Data set [19] in a line: Drug uptake in human Caco-2 cells over 0.5 to 50 uM incubated for 10 mins by HPLC-MS/MS analysis. The note with it: caco-2, 10 min, dose 0.5-50 µM. Format: ADME, cell-based.
The nature of data set [20]: Drug uptake in human Caco-2 cells at 5 uM at pH 6.0 incubated for 10 mins by HPLC-MS/MS analysis. Format: ADME, cell-based. The note with it: caco-2, pH 6, 10 min.
Data set [21] in a line: Drug uptake in human Caco-2 cells at 5 uM incubated for 10 mins in presence of glycyl-sarcosine by HPLC-MS/MS analysis. The note with it: caco-2, 10 min. Format: ADME, cell-based.
The subject of data set [22] is HepG2. Description: Cytotoxicity against human HepG2 cells assessed as reduction in cell viability incubated for 72 hrs by MTT assay. Type of data set: functional, cell-based. Background: Tetrazolium assays rely on reduction of a dye to a coloured formazan, in cell work by metabolically active cells.
Data set [23] relates to 4T1. Description: Cytotoxicity against mouse 4T1 cells assessed as reduction in cell viability incubated for 72 hrs by MTT assay. Format: functional, cell-based.
Data set [24] is described as follows: Selectivity ratio of cytotoxicity against human HepG2 cells to cytotoxicity against mouse 4T1 cells.
Data set [25] in a line: Cytotoxicity against mouse 3T3 cells assessed as reduction in cell viability incubated for 72 hrs by MTT assay. Type of data set: toxicity, cell-based. The note with it: NIH3T3 cells.

A word on the thermodynamic solubility: it is the concentration in solution at equilibrium with solid. One may read the logP as the decadic logarithm of the partition coefficient of the neutral form, usually between octanol and water. Low values mean lower lipophilicity, high ones higher lipophilicity. By half-life is commonly meant how long it takes for the measured level to halve. Broadly, the IC50 is the concentration that gives 50% inhibition.

In the case of `COc1ccc(-c2oc3c4c(cc(O)c3c(=O)c2OC(=O)N[C@H](C(=O)O)C(C)C)OC(C)(C)CC4)cc1`, in data set [1], the thermodynamic solubility at 72 h worked out at 5.69 µM (≈ 2.91 µg/mL). In data set [2], this compound showed a logP at 72 h of 2.75. In addition, the half-life is greater than 12 h in data set [3]; greater than 12 h in data set [4]; greater than 12 h in data set [5]; 8.17 h in data set [6]; greater than 12 h in [7]; greater than 12 h in data set [8]. Also, the half-life was 7.22 h in data set [9], 7.99 h in data set [10] and 0.47 h in [11]. For the same compound, the half-life at 10 µM in [12] is greater than 1.16 h. Moreover, in data set [13], the remaining at 1.167 h, 10 µM was found to be 76%. For the same compound, the Drug uptake result in data set [14], in data set [15], in data set [16] and in [17] was “Not Active” each time.

As to `COc1ccc(-c2oc3c4c(cc(O)c3c(=O)c2O)OC(C)(C)CC4)cc1`, the solubility (thermodynamic) at 72 h in data set [1] was 0.81 µM (≈ 0.298 µg/mL). In addition, in data set [2], the log partition coefficient (logP) at 72 h worked out at 3.8. The half-life in data set [3], in data set [4], in data set [5], in data set [6], in [7] and in data set [8] was greater than 12 h throughout. The half-life in [9], in data set [10] and in data set [11] was greater than 12 h each time. In addition, in data set [12], the half-life at 10 µM was 0.62 h. For the same compound, the Drug metabolism entry in data set [18] is given as “Metabolite_Detected”. The remaining at 1.167 h, 10 µM in data set [13] amounted to 27%. Moreover, the Drug uptake result in data set [19], in data set [20], in [15], in data set [16], in [17] and in [21] was “Active” in each case. Further, the Activity entry in [22] and in [23] was “Dose-Dependent Effect” throughout. In addition, in data set [24], the Selectivity ratio was 1.8. For the same compound, in [25], the IC50 at 72 h was greater than 50 µM.

For the compound `COc1ccc(-c2oc3c4c(cc(O)c3c(=O)c2OC(=O)NCC(=O)O)OC(C)(C)CC4)cc1`, the thermodynamic solubility at 72 h in data set [1] was 3.64 µM (≈ 1.71 µg/mL). This compound had a logP at 72 h in [2] of 3.66. Besides, the half-life is greater than 12 h in [3]; greater than 12 h in [4]; 5.21 h in data set [5]; 1.96 h in data set [6]; greater than 12 h in [7]; 5.24 h in [8]. The half-life was 1.89 h in data set [9], 1.96 h in data set [10] and 0.25 h in data set [11]. Also, the half-life at 10 µM in data set [12] was greater than 1.16 h. Also, the remaining at 1.167 h, 10 µM in data set [13] worked out at 76%. The Drug uptake entry in data set [14] is “Not Active”.

Compound `COc1ccc(-c2oc3c4c(cc(O)c3c(=O)c2OC(=O)N[C@@H](Cc2ccccc2)C(=O)O)OC(C)(C)CC4)cc1` gave a thermodynamic solubility at 72 h in data set [1] of 2.68 µM (≈ 1.5 µg/mL). The log partition coefficient (logP) at 72 h in [2] is 4.33. The half-life in data set [3] was greater than 12 h; in [4] it was greater than 12 h; in [5], greater than 12 h; in data set [6], 6.09 h; in data set [7], greater than 12 h; in [8], greater than 12 h. For the same compound, the half-life in data set [9] is 5.85 h; in data set [10] it was 6.04 h; in data set [11], 0.45 h. Besides, the half-life at 10 µM in [12] was greater than 1.16 h. Further, the remaining at 1.167 h, 10 µM in data set [13] was determined as 76%. For the same compound, in data set [14], the Drug uptake result is listed as “Not Active”.
